In US20090018111A1, “Novel Antimicrobial Medicament” (priority 2004, published 2009):
Where two headings read alike, the source gives them in different places.

What was measured:
Assay in all cases: Sensitivity test (agar dilution)
E. aerogenes ATCC13048 = assay type: cell-based, Enterobacter aerogenes; conditions: Klebsiella aerogenes, E. aerogenes ATCC13048
Procedure: (§1) The antibacterial activities were tested against various 18 bacteria (27 standard strains) which are representative bacteria caused clinically infectious disease (Staphylococcus aureus 3 strains, Staphylococcus epidermidis 1 strain, Micrococcus luteus 1 strain, Streptococcus pyogenes 1 strain, Enterococcus faecalis 1 strain, Enterococcus faecium 1 strain, Bacillus subtilis 1 strain, Escherichia coli 3 strains, Klebsiella pneumoniae 1 strain, Proteus mirabilis 1 strain, Proteus vulgaris 2 strains, Pseudomonas aeruginosa 3 strains, Serratia marcescens 2 strains, Enterobacter aerogenes 1 strain, Stenotrophomonas maltophilia 1 strain, Enterobacter cloacae 1 strain, Citrobacter freundii 1 strain, Moraxella catarrhalis 2 strains).
(§2) According to the standard method of Japan Chemotherapeutic Society (Chemotherapy, vol. […], p 76-79 (1981)) the test was carried out using the agar dilution method. After dissolving test samples in distilled water, agar medium containing the test samples was prepared in such a manner that the final concentration became twice serial dilution by pouring serially diluted combination drug solution or a single drug solution into agar medium. As agar medium was used Mueller Hinton Agar medium (MHA). Then, each strain was cultivated over night at 37° C. in an incubator and suspended in buffered saline solution with gelatin (BSG) in the concentration of about 10^6 CFU/ml. The suspension (about 5 μl) containing test strains was inoculated to the medium containing the test samples by Micro Planter.
(§3) When the sample is subjected to sensitivity test, this mixed solution was diluted by twice serial dilution method.
(§4) Furthermore, when the drug is solely used, each test sample was used as it is, and diluted by twice serial dilution method from the maximum concentration to the minimum concentration.
(§5) FIC index based on MIC value was calculated. […] Namely, when FIC index calculated by the following formula is equal or less than 1, the enhanced effect of the combination drug in said ratio is considered as positive. When FIC index is over 1, the enhanced effect of the combination drug in said ratio is considered as negative.
(§6) Formula of FIC index: FIC index=(MIC of Drug A in combination/MIC of Drug A alone)+(MIC of Drug B in combination/MIC of Drug B alone) N.C. in tables means being not calculated.

S. aureus 209P = assay type: cell-based, Staphylococcus aureus; conditions: Staphylococcus aureus, 209P, S. aureus 209P
Procedure: as §1, §2, §3, §4, §5, §6

[1] = test system: S. aureus MS94088 (hetero-MRSA); assay type: cell-based, Staphylococcus aureus; conditions: Staphylococcus aureus, MRSA, S. aureus MS94088 (hetero-MRSA)
Procedure: as §1, §2, §3, §4, §5, §6

E. coli ML1410 = assay type: cell-based, Escherichia coli; conditions: Escherichia coli, E. coli ML1410
Procedure: as §1, §2, §3, §4, §5, §6

E. coli NIHJ JC-2 = assay type: cell-based, Escherichia coli; conditions: Escherichia coli, E. coli NIHJ JC-2
Procedure: as §1, §2, §3, §4, §5, §6

P. vulgaris GN7919 = assay type: cell-based, Proteus vulgaris; conditions: Proteus vulgaris, P. vulgaris GN7919
Procedure: as §1, §2, §3, §4, §5, §6

P. vurgalis OX-19 = assay type: cell-based, Proteus vulgaris; conditions: Proteus vulgaris, P. vurgalis OX-19
Procedure: as §1, §2, §3, §4, §5, §6

Str. pyogenes Cook = assay type: cell-based, Streptococcus pyogenes; conditions: Streptococcus pyogenes, Str. pyogenes Cook
Procedure: as §1, §2, §3, §4, §5, §6

E. faecalis ATCC19433 = assay type: cell-based, Enterococcus faecalis; conditions: Enterococcus faecalis, E. faecalis ATCC19433
Procedure: as §1, §2, §3, §4, §5, §6

P. aeruginosa TL-2667 = assay type: cell-based, Pseudomonas aeruginosa; conditions: Pseudomonas aeruginosa, P. aeruginosa TL-2667
Procedure: as §1, §2, §3, §4, §5, §6

P. aeruginosa IFO3451 = assay type: cell-based, Pseudomonas aeruginosa; conditions: Pseudomonas aeruginosa, P. aeruginosa IFO3451
Procedure: as §1, §2, §3, §4, §5, §6

P. aeruginosa TL-2666 = assay type: cell-based, Pseudomonas aeruginosa; conditions: Pseudomonas aeruginosa, P. aeruginosa TL-2666
Procedure: as §1, §2, §3, §4, §5, §6

B. subtilis ATCC6633 = assay type: cell-based, Bacillus subtilis; conditions: Bacillus subtilis, B. subtilis ATCC6633
Procedure: as §1, §2, §3, §4, §5, §6

[2] = Concomitant (PAPM:SM = 1:1), read-out: MIC concomitant
[3] = drug alone, read-out: MIC alone

CC(=N)N1CC[C@H](SC2=C(C(=O)O)N3C(=O)[C@H]([C@@H](C)O)[C@H]3C2)C1 [PAPM, panipenem]
MIC (E. aerogenes ATCC13048; ATCC13048, Concomitant (PAPM:SM = 1:1), read-out: MIC concomitant): 0.25 µg/mL
MIC (E. aerogenes ATCC13048; ATCC13048, drug alone, read-out: MIC alone): 0.5 µg/mL
MIC (S. aureus 209P; [2]): 0.004 µg/mL
MIC (S. aureus 209P; [3]): 0.031 µg/mL
MIC [1, 2]: 0.25 µg/mL
MIC [1, 3]: 0.5 µg/mL
MIC (E. coli ML1410; ML1410, Concomitant (PAPM:SM = 1:1), read-out: MIC concomitant): 0.125 µg/mL
MIC (E. coli ML1410; ML1410, drug alone, read-out: MIC alone): 0.5 µg/mL
MIC (E. coli NIHJ JC-2; NIHJJC2, Concomitant (PAPM:SM = 1:1), read-out: MIC concomitant): 0.063 µg/mL
MIC (E. coli NIHJ JC-2; NIHJJC2, drug alone, read-out: MIC alone): 0.25 µg/mL
MIC (P. vulgaris GN7919; GN7919, Concomitant (PAPM:SM = 1:1), read-out: MIC concomitant): 0.5 µg/mL
MIC (P. vulgaris GN7919; GN7919, drug alone, read-out: MIC alone): 1 µg/mL
MIC (P. vurgalis OX-19; OX19, Concomitant (PAPM:SM = 1:1), read-out: MIC concomitant): 0.063 µg/mL
MIC (P. vurgalis OX-19; OX19, drug alone, read-out: MIC alone): 1 µg/mL
MIC (Str. pyogenes Cook; [2]): ≤ 0.002 µg/mL
MIC (Str. pyogenes Cook; [3]): 0.008 µg/mL
MIC (E. faecalis ATCC19433; ATCC19433, Concomitant (PAPM:SM = 1:1), read-out: MIC concomitant): 1 µg/mL
MIC (E. faecalis ATCC19433; ATCC19433, drug alone, read-out: MIC alone): 2 µg/mL
MIC (P. aeruginosa TL-2667; TL2667, Concomitant (PAPM:SM = 1:1), read-out: MIC concomitant): 16 µg/mL
MIC (P. aeruginosa TL-2667; TL2667, drug alone, read-out: MIC alone): 16 µg/mL
MIC (P. aeruginosa IFO3451; IFO3451, Concomitant (PAPM:SM = 1:1), read-out: MIC concomitant): 2 µg/mL
MIC (P. aeruginosa IFO3451; IFO3451, drug alone, read-out: MIC alone): 4 µg/mL
MIC (P. aeruginosa TL-2666; TL2666, Concomitant (PAPM:SM = 1:1), read-out: MIC concomitant): 8 µg/mL
MIC (P. aeruginosa TL-2666; TL2666, drug alone, read-out: MIC alone): 8 µg/mL
MIC (B. subtilis ATCC6633; ATCC6633, Concomitant (PAPM:SM = 1:1), read-out: MIC concomitant): ≤ 0.002 µg/mL
MIC (B. subtilis ATCC6633; ATCC6633, drug alone, read-out: MIC alone): 0.016 µg/mL
